The values that follow come from patent US11492348B2, “Tri-substituted aryl and heteroaryl derivatives as modulators of PI3-kinase and autophagy pathways” (Neuropore Therapies, Inc., priority 2018, dated 2022).

Structures are written as SMILES. pIC50: −log10 of the molar value. Where a name gives a salt, the structure may show the parent alone.

A word on the pIC50: it is −log10 of the IC50, conventionally taken in molar units.

One assay addresses PI3Kα (Homo sapiens (Human), UniProt P42336). Put plainly: Inhibition of PI3Kα (ADP-Glo kinase activity assay, ATP to ADP conversion). It counts as biochemical. As to conditions: 25 μM PIP2:PS, 60 μM ATP, 30 min reaction, luminescence. The gist of the method: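 Recombinant active PI3Kα (1.1 nM) in HEPES pH 7.5 buffer with 6 mM MgCl2 and 8 mM DTT was preincubated with compound for 0 or 3 h. The reaction ran for 30 min with 25 µM PIP2:PS and 60 µM ATP, and ADP formation was read by ADP-Glo luminescence. IC50 came from a 12-point, 1:3 series fitted with a 4-parameter model, bottom fixed to reference inhibitor controls and top floating.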
(In general: ADP-Glo turns the ADP formed in a reaction into a luminescent signal.)

For the next assay, the target named is mTor kinase (Homo sapiens (Human), UniProt P42345). Put plainly: mTor assay (33P-ATP filter-binding kinase assay). The assay is classed as biochemical. The note with it: 2 hours at room temperature. How it is done: The substrate was prepared in base reaction buffer (20 mM Hepes (pH 7.5), 10 mM MgCl2, 1 mM EGTA, 0.02% Brij35, 0.02 mg/ml BSA, 0.1 mM Na3VO4, 2 mM DTT, 1% DMSO), and required cofactors were added to the substrate solution. The mTor kinase was delivered into the substrate solution, and the solution was gently mixed. Testing compounds were dissolved in 100% DMSO to specific concentration. The serial dilution was conducted by Integra Viaflo Assist in DMSO. The compounds were delivered into the kinase reaction mixture by Acoustic technology (Echo550; nanoliter range), and the reaction mixture was incubated for 20 min at room temperature. Then, 33P-ATP (Specific activity 10 μCi/μl) was delivered into the reaction mixture to initiate the reaction. The reaction mixture was incubated for 2 hours at room temperature. Radioactivity was detected by a filter-binding method. Kinase activity data were expressed as the percent remaining kinase activity in test samples compared to vehicle (dimethyl sulfoxide) reactions. IC50 values and curve fits were obtained using Prism (GraphPad Software).

Assay [1] relates to (Ser-473) pAKT in B103 (Rat Neuroblastoma) cells. The assay is described as follows: pAKT protocol: loss of (Ser-473) pAKT by AlphaScreen in insulin-stimulated B103 cells. The note with it: (Ser-473) pAKT/total AKT IC50, 2-hour pretreatment, 2.5 μg/mL insulin 20 minutes. The assay is classed as cell-based. How it is done:
Inhibition of the PI3K-AKT-mTOR pathway was measured by quantifying the loss of (Ser-473) pAKT using AlphaScreen (Perkin Elmer). B103 (Rat Neuroblastoma) cells were seeded in serum containing medium (High Glucose DMEM (-Phenol Red)+10% FBS+2× Glutamax+1 mM Sodium Pyruvate+10 mM HEPES+1× Non-Essential Amino Acids+1× Pen/Strep) on a 96-well tissue culture treated plate and grown for 20 hours. Cells were then serum starved in serum free medium (High Glucose DMEM (-Phenol Red)+1× Glutamax+1 mM Sodium Pyruvate+1× Pen/Strep) for 6 hours prior to a 2-hour pretreatment with inhibitors of the pathway, including reference inhibitor LY294002. These inhibitors were prepared at a 200× final concentration as a 6-point, 1:3 serial dilution in DMSO series, with DMSO as the 7th point. The inhibitors were then diluted in experimental medium (High Glucose DMEM (-Phenol Red)+1× Glutamax+1 mM Sodium Pyruvate+1× Pen/Strep+25 mM HEPES+0.1% BSA) and combined with the cells at 1× final concentration in 0.5% DMSO. […] Cells were promptly lysed using Perkin Elmer proprietary lysis buffer and the (Ser-473) pAKT and total AKT contained in the lysate was measured by AlphaScreen. In AlphaScreen, donor beads were coated with streptavidin to capture one of the antibodies, which is biotinylated. Acceptor beads were coated with Protein A to immobilize the other antibody. In the presence of target protein, the two antibodies bring the donor and acceptor beads close together, generating signal. The amount of light emission is directly proportional to the amount of target protein present in the sample. For each inhibitor tested: the ratio of measured (Ser-473) pAKT/totalAKT was plotted in GraphPad Prism as a 7-point, non-linear regression, 4-parameter curve with bottom constrained to reference control bottom and unconstrained top anchored to DMSO.

Sequence of PI3Kα (P42336 whole entry): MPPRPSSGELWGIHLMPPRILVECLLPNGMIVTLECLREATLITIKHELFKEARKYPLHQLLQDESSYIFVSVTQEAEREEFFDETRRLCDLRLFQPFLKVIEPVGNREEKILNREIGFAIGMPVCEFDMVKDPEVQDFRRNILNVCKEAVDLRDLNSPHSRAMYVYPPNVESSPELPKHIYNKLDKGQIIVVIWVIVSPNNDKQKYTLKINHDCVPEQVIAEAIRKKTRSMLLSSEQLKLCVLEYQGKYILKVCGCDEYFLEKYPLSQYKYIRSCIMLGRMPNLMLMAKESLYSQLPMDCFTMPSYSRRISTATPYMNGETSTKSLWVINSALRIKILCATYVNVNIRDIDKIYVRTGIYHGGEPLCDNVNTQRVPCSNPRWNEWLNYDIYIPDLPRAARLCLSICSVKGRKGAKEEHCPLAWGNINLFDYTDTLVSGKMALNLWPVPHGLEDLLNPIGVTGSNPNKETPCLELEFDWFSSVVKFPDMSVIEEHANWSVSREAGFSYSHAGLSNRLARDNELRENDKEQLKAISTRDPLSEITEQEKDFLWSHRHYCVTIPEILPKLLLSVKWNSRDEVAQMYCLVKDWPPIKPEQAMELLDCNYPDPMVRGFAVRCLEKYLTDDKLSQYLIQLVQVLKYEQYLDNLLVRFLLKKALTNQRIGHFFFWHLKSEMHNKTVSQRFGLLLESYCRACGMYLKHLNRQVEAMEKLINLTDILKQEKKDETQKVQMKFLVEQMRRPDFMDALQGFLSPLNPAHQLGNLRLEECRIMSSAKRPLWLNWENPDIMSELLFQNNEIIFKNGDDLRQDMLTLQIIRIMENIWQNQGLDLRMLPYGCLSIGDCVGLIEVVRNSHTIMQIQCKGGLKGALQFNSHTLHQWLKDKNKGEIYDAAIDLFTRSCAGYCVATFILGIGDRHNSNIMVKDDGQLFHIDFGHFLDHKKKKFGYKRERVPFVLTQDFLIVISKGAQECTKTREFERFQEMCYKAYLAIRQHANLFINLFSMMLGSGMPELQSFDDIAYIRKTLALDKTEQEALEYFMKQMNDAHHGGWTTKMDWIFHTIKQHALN
Sequence of PI3Kα (P27986 whole entry partner): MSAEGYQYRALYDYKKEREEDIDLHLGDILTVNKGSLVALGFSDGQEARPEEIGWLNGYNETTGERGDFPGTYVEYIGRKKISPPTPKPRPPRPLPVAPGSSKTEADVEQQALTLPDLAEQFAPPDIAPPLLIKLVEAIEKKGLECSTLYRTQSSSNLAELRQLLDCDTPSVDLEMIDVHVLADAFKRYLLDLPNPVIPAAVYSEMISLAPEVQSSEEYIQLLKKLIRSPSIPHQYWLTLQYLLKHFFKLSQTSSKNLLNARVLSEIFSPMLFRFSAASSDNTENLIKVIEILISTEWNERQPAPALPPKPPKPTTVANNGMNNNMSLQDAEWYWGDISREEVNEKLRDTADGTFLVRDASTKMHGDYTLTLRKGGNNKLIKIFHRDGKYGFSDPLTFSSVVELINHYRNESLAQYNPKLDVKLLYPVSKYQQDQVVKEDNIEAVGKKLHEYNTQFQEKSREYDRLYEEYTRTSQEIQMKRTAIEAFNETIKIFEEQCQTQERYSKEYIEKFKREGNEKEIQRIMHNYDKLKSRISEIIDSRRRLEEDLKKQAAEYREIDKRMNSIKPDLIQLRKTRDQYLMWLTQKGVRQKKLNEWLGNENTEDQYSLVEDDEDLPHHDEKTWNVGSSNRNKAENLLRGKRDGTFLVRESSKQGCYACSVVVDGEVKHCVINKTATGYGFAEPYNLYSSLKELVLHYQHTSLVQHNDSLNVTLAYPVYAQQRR

In the case of `Nc1ncc(-c2cc(N3CCOCC3)cc(S(=O)(=O)c3cccc4ccoc34)c2)cn1` [Compound 110, 5-(3-(benzofuran-7-ylsulfonyl)-5-morpholinophenyl)pyrimidin-2-amine], the “PI3Ka IC50” value at PI3Kα was determined as 0.40 µM. Also, the pIC50 was 5.00 on mTor kinase and 5.06 in assay [1].
In the case of `N#Cc1cccc(CS(=O)(=O)c2cc(-c3cnc(N)nc3)cc(N3CCOCC3)c2)c1` [Compound 27, 3-(((3-(2-aminopyrimidin-5-yl)-5-morpholinophenyl)sulfonyl)methyl) benzonitrile], the “PI3Ka IC50” value at PI3Kα came to 0.38 µM. For the same compound, the pIC50 on mTor kinase is 4.96; in assay [1] it was 4.85.
The like results for `CC(C)(C)OC(=O)N1CC(S(=O)(=O)c2cc(-c3cnc(N)nc3)cc(N3CCOCC3)c2)C1` [Compound 54, tert-butyl 3-((3-(2-aminopyrimidin-5-yl)-5-morpholinophenyl)sulfonyl) azetidine-1-carboxylate] were, in that order, 0.13 µM, 6.23 and 5.61.
The like results for `Nc1ncc(-c2cc(N3CCOCC3)cc(S(=O)(=O)Cc3ccccc3)c2)cn1` [Compound 23, 5-(3-(benzylsulfonyl)-5-morpholinophenyl)pyrimidin-2-amine] were, in that order, 0.10 µM, 5.52 and 5.07.
Turning to `Nc1ncc(-c2cc(N3CCOCC3)cc(S(=O)(=O)C3COc4ccccc43)c2)cn1` (stereo not drawn) [Compound 119, 5-(3-((2,3-dihydrobenzofuran-3-yl)sulfonyl)-5-morpholinophenyl)pyrimidin-2-amine], on PI3Kα, the “PI3Ka IC50” value turned out to be 0.11 µM. For the same compound, the pIC50 on mTor kinase is 5.33; in assay [1], 5.40.
Regarding `O=S(=O)(Cc1ccc(F)cc1)c1cc(-c2cccc(O)c2)cc(N2CCOCC2)c1` [Compound 41, 3′-((4-fluorobenzyl)sulfonyl)-5′-morpholino-[1,1′-biphenyl]-3-ol], on PI3Kα, the “PI3Ka IC50” value was determined as 0.53 µM. Moreover, the results for the pIC50 (at mTor kinase; in assay [1]) were 5.37 and 6.07, respectively.
For the compound `Nc1ncc(-c2cc(N3CCOCC3)cc(S(=O)(=O)c3ccc(F)c(Cl)c3)c2)cn1` [Compound 11, 5-(3-((3-chloro-4-fluorophenyl)sulfonyl)-5-morpholinophenyl)pyrimidin-2-amine], the “PI3Ka IC50” value on PI3Kα was 1.40 µM. The negative-log IC50 (pIC50) at mTor kinase was 4.66; in assay [1] it was 4.00.
As for `Nc1cc(C(F)(F)F)c(-c2cc(N3CCOCC3)cc(S(=O)(=O)Cc3ccccc3)c2)cn1` [Compound 32, 5-(3-(benzylsulfonyl)-5-morpholinophenyl)-4-(trifluoromethyl)pyridin-2-amine], at PI3Kα, the “PI3Ka IC50” value was determined as 0.45 µM. Besides, the values for the negative logarithm of the IC50 (pIC50) (on mTor kinase; in assay [1]) were less than 4.48 and 5.20, respectively.
Taken in the same sequence, the figures for `Nc1ncc(-c2cc(Oc3ccccc3Cl)cc(N3CCOCC3)n2)cn1` [Compound 134, 5-(4-(2-chlorophenoxy)-6-morpholinopyridin-2-yl)pyrimidin-2-amine] were 0.07 µM, 6.35 and 6.42.
Turning to `CS(=O)(=O)Nc1ccc(CS(=O)(=O)c2cc(-c3cnc(N)nc3)cc(N3CCOCC3)c2)cc1` [57 (as a TFA salt), N-(4-(((3-(2-aminopyrimidin-5-yl)-5-morpholinophenyl)sulfonyl)methyl)phenyl) methanesulfonamide], the negative-log IC50 (pIC50) is 6.32 at PI3Kα (read-out: PI3Ka IC50), 5.46 on mTor kinase and 4.70 in assay [1].
In the case of `Nc1ncc(-c2cc(OC3CCOC3)cc(N3CCOCC3)n2)cn1` (stereo not drawn) [Compound 130, 5-(6-morpholino-4-((tetrahydrofuran-3-yl)oxy)pyridin-2-yl)pyrimidin-2-amine], the “PI3Ka IC50” value on PI3Kα was 0.023 µM. The values for the negative-log IC50 (pIC50) (at mTor kinase; in assay [1]) were 5.76 and 6.12, respectively.
The like results for `Nc1ncc(-c2cc(N3CCOCC3)cc(S(=O)(=O)Cc3c[nH]cn3)c2)cn1` [59 (as a TFA salt), 5-(3-(((1H-imidazol-4-yl)methyl)sulfonyl)-5-morpholinophenyl)pyrimidin-2-amine] were, in that order, 0.46 µM, 5.34 and 4.44.
For `Nc1ncc(-c2cc(C(=O)c3ccccc3)cc(N3CCOCC3)n2)cn1` [Compound 122, (2-(2-aminopyrimidin-5-yl)-6-morpholinopyridin-4-yl)(phenyl)methanone], the “PI3Ka IC50” value at PI3Kα turned out to be 0.037 µM. The pIC50 is 6.29 on mTor kinase and 6.32 in assay [1].
Taken in the same sequence, the figures for `O=S(=O)(c1ccccc1)c1cc(-c2cnc(NCCO)nc2)cc(N2CCOCC2)c1` [Compound 19, 2-((5-(3-morpholino-5-(phenylsulfonyl)phenyl)pyrimidin-2-yl)amino)ethan-1-ol] were 2.9 µM, 4.80 and 4.43.
In the case of `Nc1ncc(-c2cc(N3CCOCC3)cc(S(=O)(=O)C(F)(F)c3ccccc3)c2)cn1` [Compound 87, 5-(3-((difluoro(phenyl)methyl)sulfonyl)-5-morpholinophenyl)pyrimidin-2-amine], the “PI3Ka IC50” value on PI3Kα is 0.21 µM. The pIC50 on mTor kinase was 5.84; in assay [1], 6.00.
Taken in the same sequence, the figures for `Nc1cc(Cl)c(-c2cc(N3CCOCC3)cc(S(=O)(=O)[C@@H]3CCOC3)c2)cn1` [Compound 107, (R)-4-chloro-5-(3-morpholino-5-((tetrahydrofuran-3-yl)sulfonyl)phenyl)pyridin-2-amine] were 0.067 µM, 5.36 and 5.43.
The like results for `Nc1cc(C(F)(F)F)c(-c2cc(N3CCOCC3)cc(S(=O)(=O)C3CCOC3)c2)cn1` (stereo not drawn) [Compound 70, 5-(3-morpholino-5-((tetrahydrofuran-3-yl)sulfonyl)phenyl)-4-(trifluoromethyl)pyridin-2-amine] were, in that order, 7.6 µM, 5.12 and 5.40.
Turning to `Nc1ncc(-c2cc(C(F)(F)c3ccccc3)cc(N3CCOCC3)n2)cn1` [Compound 123, 5-(4-(Difluoro(phenyl)methyl)-6-morpholinopyridin-2-yl)pyrimidin-2-amine], the “PI3Ka IC50” value on PI3Kα was 0.046 µM. Further, the negative logarithm of the IC50 (pIC50) at mTor kinase is 6.25; in assay [1] it was 6.34.
For the compound `N#Cc1ccc(S(=O)(=O)c2cc(-c3cnc(N)cc3C(F)(F)F)cc(N3CCOCC3)c2)cc1` [Compound 18, 4-((3-(6-amino-4-(trifluoromethyl)pyridin-3-yl)-5-morpholinophenyl)sulfonyl)benzonitrile], the “PI3Ka IC50” value at PI3Kα amounted to 3.9 µM. Also, the pIC50 (at mTor kinase; in assay [1]) was 4.00 each time.
For `Nc1ncc(-c2cc(Oc3ccccc3OC(F)(F)F)cc(N3CCOCC3)n2)cn1` [Compound 136, 5-(6-morpholino-4-(2-(trifluoromethoxy)phenoxy)pyridin-2-yl)pyrimidin-2-amine], on PI3Kα, the “PI3Ka IC50” value was 0.37 µM. The values for the pIC50 (at mTor kinase; in assay [1]) were 5.69 and 5.82, respectively.
Taken in the same sequence, the figures for `Nc1ncc(-c2cc(C(F)(F)C3CCOCC3)cc(N3CCOCC3)n2)cn1` [Compound 133, 5-(4-(difluoro(tetrahydro-2H-pyran-4-yl)methyl)-6-morpholinopyridin-2-yl)pyrimidin-2-amine] were 0.012 µM, 6.36 and 6.40.
Taken in the same sequence, the figures for `Nc1ncc(-c2cc(N3CCOCC3)cc(S(=O)(=O)[C@@H]3CCOC3)c2)cn1` [Compound 52, (R)-5-(3-morpholino-5-((tetrahydrofuran-3-yl)sulfonyl)phenyl)pyrimidin-2-amine] were 0.13 µM, 6.14 and 5.46.
